Source: the NIST ThermoML archive (doi:10.1016/j.jct.2005.03.017)
± gives the expanded uncertainty stated by the source.

Experiments:
[1] = Liquid; for mass density: 293.15 K, 101.33 kPa; for Normal boiling temperature: Ebulliometric method (Recirculating still)
[2] = refractive index (Na D-line) (dimensionless); conditions: 293.15 K; 101.33 kPa; Liquid; Standard Abbe refractometry

O=C1CCCCC1 [cyclohexanone]
mass density [1]: 947.3 ± 0.6 kg/m3
Normal boiling temperature [1]: 155.54 ± 0.1 °C
refractive index [2]: 1.451 ± 0.0008

CCC(=O)O [propanoic acid]
mass density [1]: 992.7 ± 0.5 kg/m3
Normal boiling temperature [1]: 141.0 ± 0.1 °C
refractive index [2]: 1.3811 ± 0.0008

O [water]
Normal boiling temperature [1]: 100.08 ± 0.1 °C
refractive index [2]: 1.3326 ± 0.0008
